Laboratory results: patent US7595409B2, “3,4-diamino-3-cyclobutene-1,2-dione derivatives as potassium channel openers” (Janssen Pharmaceutica N.V., priority 2006, dated 2009)

Biological target: T1, KATP channels (Homo sapiens, UniProt O60706)
T1 construct: TE671 human medulloblastoma cells were obtained from ATCC; host or cells: TE671 human medulloblastoma cells
Test: Potassium Channel Assay (FLIPR membrane potential, TE671 cells)
Assay type: cell-based
Conditions: 30 μM test compound; TE671 human medulloblastoma cells; FLIPR Membrane Potential Assay Dye; room temperature
Experimental: TE671 human medulloblastoma cells were obtained from ATCC and grown in Dulbecco's modified Eagle's medium (DMEM) supplemented with 10% fetal bovine serum, 100 U/ml penicillin and 100 U/ml streptomycine.
The day before testing, the cells were plated in black 96-well plates at 50 K/well. On the day of testing, the growth media was removed, then 100 μl of FLIPR buffer (20 mM 4-(2-hydroxyethyl)-1-piperizine ethane sulfonic acid (HEPES), 120 mM NaCl, 2 mM KCl, 2 mM CaCl2, 1 mM MgCl2, 5 mM Glucose) and 100 μl of Membrane Potential Assay Dye (Molecular Devices) dissolved in FLIPR buffer were added to each well. The cells were incubated at room temperature for 15 to 30 min.
The effect of test compounds on KATP channels were evaluated on a fluorometric imaging plate reader (FLIPR, Molecular Devices) at room temperature. After a baseline period, 50 μl of 5× stock solution of test compound prepared in FLIPR buffer was added and fluorescent change was monitored for 3 minutes. After this reading, glyburide, a KATP channel blocker, was added to a final concentration of 5 μM to check the specificity of the test compound as a KATP channel openers. Hyperpolarization resulting from KATP channel opening was observed as a decrease in fluorescent intensity.
Representative compounds of the present invention were tested according to the procedure described above, with results as listed in Table 2 below.

T1 sequence (O60706 1-1549 isoform O60706-2): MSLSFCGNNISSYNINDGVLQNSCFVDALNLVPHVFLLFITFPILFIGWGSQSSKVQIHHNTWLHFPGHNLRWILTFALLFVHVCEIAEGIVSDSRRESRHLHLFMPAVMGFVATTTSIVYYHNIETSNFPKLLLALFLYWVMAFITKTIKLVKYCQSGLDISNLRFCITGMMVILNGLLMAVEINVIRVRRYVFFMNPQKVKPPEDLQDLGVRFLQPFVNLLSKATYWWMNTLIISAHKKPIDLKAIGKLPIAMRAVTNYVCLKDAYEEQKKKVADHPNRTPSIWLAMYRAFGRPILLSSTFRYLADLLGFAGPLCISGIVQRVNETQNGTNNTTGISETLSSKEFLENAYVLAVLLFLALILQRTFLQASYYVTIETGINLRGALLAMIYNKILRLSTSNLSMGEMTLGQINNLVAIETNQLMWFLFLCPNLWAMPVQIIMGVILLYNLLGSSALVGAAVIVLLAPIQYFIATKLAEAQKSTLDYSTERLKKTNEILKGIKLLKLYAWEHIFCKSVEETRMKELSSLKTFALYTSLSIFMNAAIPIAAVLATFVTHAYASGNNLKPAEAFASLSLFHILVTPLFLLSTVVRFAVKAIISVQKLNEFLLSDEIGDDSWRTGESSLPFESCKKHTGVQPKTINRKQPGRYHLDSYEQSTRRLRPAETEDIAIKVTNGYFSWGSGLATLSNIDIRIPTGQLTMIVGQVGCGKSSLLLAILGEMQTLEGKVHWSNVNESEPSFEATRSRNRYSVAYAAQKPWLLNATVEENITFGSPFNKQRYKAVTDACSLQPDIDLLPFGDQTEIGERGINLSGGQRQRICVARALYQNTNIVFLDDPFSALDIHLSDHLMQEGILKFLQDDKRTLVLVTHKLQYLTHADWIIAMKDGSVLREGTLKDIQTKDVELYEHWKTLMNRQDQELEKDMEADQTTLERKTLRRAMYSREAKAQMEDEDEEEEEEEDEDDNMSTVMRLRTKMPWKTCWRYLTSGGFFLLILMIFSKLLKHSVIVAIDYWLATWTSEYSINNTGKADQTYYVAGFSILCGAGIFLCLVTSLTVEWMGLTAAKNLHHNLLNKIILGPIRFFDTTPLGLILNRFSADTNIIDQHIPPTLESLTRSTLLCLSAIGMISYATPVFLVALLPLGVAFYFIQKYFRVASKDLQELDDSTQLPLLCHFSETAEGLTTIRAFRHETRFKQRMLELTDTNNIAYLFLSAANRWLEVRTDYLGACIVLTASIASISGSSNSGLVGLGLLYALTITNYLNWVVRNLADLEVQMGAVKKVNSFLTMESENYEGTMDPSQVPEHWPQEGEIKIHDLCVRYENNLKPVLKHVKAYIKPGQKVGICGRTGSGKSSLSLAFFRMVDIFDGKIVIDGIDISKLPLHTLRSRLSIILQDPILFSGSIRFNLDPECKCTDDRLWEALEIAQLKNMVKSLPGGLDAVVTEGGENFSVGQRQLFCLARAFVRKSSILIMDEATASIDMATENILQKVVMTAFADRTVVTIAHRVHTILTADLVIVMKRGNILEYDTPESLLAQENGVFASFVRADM
T1 sequence (Q14654 whole entry partner): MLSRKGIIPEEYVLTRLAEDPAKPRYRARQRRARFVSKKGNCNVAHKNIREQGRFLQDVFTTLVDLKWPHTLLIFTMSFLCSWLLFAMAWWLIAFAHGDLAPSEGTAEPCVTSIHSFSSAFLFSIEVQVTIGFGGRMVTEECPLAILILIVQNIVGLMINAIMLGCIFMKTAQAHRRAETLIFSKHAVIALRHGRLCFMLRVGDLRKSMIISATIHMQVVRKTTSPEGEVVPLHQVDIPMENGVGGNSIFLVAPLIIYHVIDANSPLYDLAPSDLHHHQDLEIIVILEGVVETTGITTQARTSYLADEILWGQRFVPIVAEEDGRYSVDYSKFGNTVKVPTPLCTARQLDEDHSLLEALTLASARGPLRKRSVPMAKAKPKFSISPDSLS

Structure (SMILES)	% Stimulation @ 30 μM
CCc1cc(C#N)ccc1Nc1c(NC2CCCC23CCCO3)c(=O)c1=O (centres unmarked) [Compound 1, 3-ethyl-4-[[2-(1-oxaspiro[4.4]non-6-ylamino)-3,4-dioxo-1-cyclobutene-1-yl]amino]-benzonitrile]	94%
Cc1cc(Cl)cc(Cl)c1CNc1c(NC2CCCC23CCCO3)c(=O)c1=O (centres unmarked) [Compound 3, 3-[[(2,4-dichloro-6-methylphenyl)methyl]amino]-4-(1-oxaspiro[4.4]non-6-ylamino)-3-cyclobutene-1,2-dione]	49%
